The nature of the data set: Human HepG2 cell viability assay in 384 well format. In kind it is toxicity, cell-based. More on the design: dose 125 nL, time 70.5 hour; concentration not given beside the values. To be noted: HepG2 cells, read-out: Inhibition.
Consider `OCc1cc2ccccc2nc1N1CCCCC1`, for which the cytotoxicity at 70.5 h stood at 31.2%. In the case of `O=C(NCCn1ccnc1)N1CCCC1c1ccncc1` (configuration not stated) it was 1.26%; in that of `O=C(CN1CCCC1Cn1cncn1)NC(C1CC1)C1CC1` (configuration not stated), -4.54%. With `c1cncc(CC2CN(c3cccnc3)CCO2)c1` (configuration not stated), the cytotoxicity at 70.5 h was -6.99%. In the case of `O=C(CC1CC1)N1CC[C@H]2[C@@H]1CCC(=O)N2c1cccnc1` it was -16.4%; in that of `Cc1cccc(N(CC(=O)N2CCCCC2)Cc2nc(=O)[nH][nH]2)c1`, -0.474%; in that of `CCCC(O)CN1CCC(=O)N(Cc2ccccc2)Cc2ccccc21` (configuration not stated), 2.6%. Then `O[C@@H]1C[C@@H](c2nc(-c3ccc(F)cc3)no2)N(C2CCOCC2)C1`, with -3.33%. In the case of `Cc1ccnc(OC[C@]23COC[C@H]2CN(C(=O)Cc2ccsc2)C3)n1` it was -7.56%. For `CNC(=O)CSC(C)c1ccc(Br)cc1` (configuration not stated), the cytotoxicity at 70.5 h is 2.63%. Then `Cc1ccsc1[C@@H]1CCN(C(=O)CCC(=O)c2ccccc2)C[C@H]1O`, with -9.94%. In the case of `Fc1ccccc1CN1CCC[C@H](Cn2nnc(-c3cccs3)n2)C1` it was -0.999%. Then `CN(C)C(=O)N1C[C@@H]2CC[C@H](C1)N(C(=O)c1cccc(N(C)C)c1)C2`, with -4.96%; and `CCc1nc(C)c(CN2CCN(c3ncnc4c(C)csc34)CC2)[nH]1`, with -14%; and `COc1ccc(F)cc1-c1ccccc1CC1(C(=O)O)CCOCC1`, with 27.6%. `COc1ccc(CN(Cc2cccnc2)CC2CCCO2)c(OC)c1` (configuration not stated): the cytotoxicity at 70.5 h is -5.79%.

On to `CCC[C@H]1CN(S(=O)(=O)c2c(C)noc2C)C[C@@H]1N`, for which the cytotoxicity at 70.5 h was -3.53%. Then `CN(Cc1ccccc1)C(=O)[C@@H]1Cc2[nH]cnc2CN1C`, with 9.41%; and `CC(C)N(CC(N)=O)C(=O)CCC(=O)c1ccc(F)cc1F`, with -6.11%; and `CCOCCN1CCN(c2ccc(C#N)cn2)CC1CC` (configuration not stated), with 1.12%. In the case of `CNc1ncc(C(=O)N[C@H]2CN(CCCSC)C[C@@H]2C2CC2)cn1` it was -5.85%; in that of `Cc1cc(N(C)C)cc(C2CCN(S(=O)(=O)c3cccnc3)C2)n1` (configuration not stated), 1.07%; in that of `CCNC(=O)N1CCC(NC(=O)NCCc2cc3ccccc3o2)C1` (configuration not stated), 11.5%. Take `COc1ccc(N2CCN(CC(O)c3cc(C)ccc3C)CC2)cc1` (configuration not stated): the cytotoxicity at 70.5 h is -14.7%.

Consider `O=C(CN1CCN(c2ccnc3c(F)ccc(F)c23)CC1)NC1CC1`, for which the cytotoxicity at 70.5 h stood at 0.111%.

As for `CCn1ccnc1C1CCN(Cc2cccc(Cl)c2)CC1`, the cytotoxicity at 70.5 h was found to be 37.8%. `CCc1noc(CN(C)C(=O)COc2cccc(Cl)c2C)n1`: the cytotoxicity at 70.5 h was -6.73%.

As to `CN(C)C(=O)N1C[C@H](Oc2ccccn2)[C@H]2OCCC[C@H]21`, the cytotoxicity at 70.5 h was -7.83%. In the case of `Cc1cc(C(F)(F)F)nc(C2COCCN2S(C)(=O)=O)n1` (configuration not stated) it was -6.03%. In the case of `CN(Cc1ccco1)C(=O)C1CCCc2ccccc21` (configuration not stated) it was -3.68%; in that of `Cc1nc2c(c(=O)[nH]1)CN(C(=O)CC[C@@H]1CCCN3CCCC[C@H]13)C2`, 24.5%; in that of `Cn1cnc(S(=O)(=O)N2CCSC3(CCCCC3)C2)c1`, 4.34%. Take `CCc1noc(CC)c1CNC(=O)Nc1ccc2[nH]nnc2c1`: the cytotoxicity at 70.5 h is -4.16%. In the case of `Cn1nc(-c2cccs2)cc1[C@H]1CN2CC[C@H]1C[C@@H]2CN` it was -6.9%; in that of `Cn1cc(C2CCCN2C(=O)c2cn(-c3ccccc3)nn2)cn1` (configuration not stated), -0.276%. As to `CC(=O)NCCC(=O)NCCCOc1c(C)cccc1C`, the cytotoxicity at 70.5 h is -6.31%. Then `CC(CC(=O)O)CC(=O)Nc1sc2c(c1C(N)=O)CCc1ccccc1-2` (configuration not stated), with 19.3%; and `CCc1noc(C(C)N2CCN(c3ccc(C#N)cc3F)CC2)n1` (configuration not stated), with -24.4%; and `CCN(CC)c1ncc2c(O)nc(C3CCNCC3)cc2n1`, with -4.7%. Then `O=C(Nc1cnc2n1CCCC2)c1cccc(OCC(F)(F)F)c1`, with -6.16%; and `COC(=O)c1cnc2c(c(C)nn2C)c1OC`, with -3.27%; and `CN(CCCNC(=O)c1ccccc1OCC(N)=O)CC(F)(F)F`, with 1.62%. In the case of `CCc1nnc(CNC2CCN(c3ncnc4c(C)csc34)CC2)s1` it was -1.72%; in that of `CCC[C@@H]1CN(Cc2cc(OC)c3c(c2)OCO3)C[C@H]1C(=O)O`, -2.82%. In the case of `Cc1cccc(COc2ccc(C(C)N)cc2)c1` (configuration not stated), the cytotoxicity at 70.5 h was -4.64%. On to `Cc1cnnn1Cc1nnn2c1CN(Cc1cccs1)CCC2`, for which the cytotoxicity at 70.5 h was -1.92%. In the case of `CCn1cc2c(n1)CN(Cc1sccc1C)CC2COCC1CC1` (configuration not stated) it was -7.71%.

Take `Cc1cccc(C)c1NC(=O)CCNC(=O)c1ccoc1`: the cytotoxicity at 70.5 h is -3.89%. As for `CC(C)c1nnc2ccc(N3CCC(C(N)=O)CC3)nn12`, the cytotoxicity at 70.5 h was found to be 3.97%. In the case of `Cc1cc(C)n(CC2CCCN2C(=O)c2ccc3c(c2)nnn3C)n1` (configuration not stated) it was 1.66%; in that of `COc1ncc(NC(=O)c2ccco2)c(OC)n1`, 7.73%; in that of `c1cc(CN2CCOCC3(C2)CN(Cc2nccs2)CCO3)ccn1` (configuration not stated), 17.5%.

With `COCC1CC2(CCN(CC3CC3)CC2)CN1Cc1ccccn1` (configuration not stated), the cytotoxicity at 70.5 h is -2.19%. Then `O=C(NCc1ccco1)[C@@H]1CCO[C@@H]2CCN(c3ccncn3)C[C@H]21`, with -2.41%; and `Cc1nc(C(=O)N(C)CC(F)(F)C(F)(F)F)c2ccccn12`, with -13.5%; and `CC(C)=CCCC1(C)C=Cc2c(cc(C)n(CCC(=O)O)c2=O)O1` (configuration not stated), with 4.03%.

With `COc1ccc2c(c1)c(C(=O)Nc1cc(C)n(C)n1)cn2C(C)C`, the cytotoxicity at 70.5 h was -0.21%. As to `Cc1ccc(C(=O)Nc2c(C(=O)N(C)C)nn(C)c2C)cc1`, the cytotoxicity at 70.5 h was -4.31%.

For the compound `O=c1[nH]c(NCCO)nc2c1C1(CCCC1)Cc1ccccc1-2`, the cytotoxicity at 70.5 h amounted to 18.4%. For `COCc1cn(C[C@H]2C[C@@H]3CCN2C[C@@H]3C(=O)N2CCOCC2)nn1`, the cytotoxicity at 70.5 h is -3.96%. On to `Fc1ccc(F)c(CN2CCC(c3cnccn3)CC2)c1`, for which the cytotoxicity at 70.5 h is -5.3%. Then `CCN(C)CC(=O)N1CCN(Cc2ccccc2)[C@@H]2CS(=O)(=O)C[C@@H]21`, with 2.14%. Consider `CC(C)CNC(=O)CC1(Cn2cnnn2)CCCCC1`, for which the cytotoxicity at 70.5 h was -12.5%. In the case of `CC(=O)N1CCC(NC[C@H]2Cn3c(-c4ccccc4)cnc3CO2)CC1`, the cytotoxicity at 70.5 h is -5.76%.

`O=C(NCCc1nncn1C1CC1)C1SCCc2sccc21` (configuration not stated): the cytotoxicity at 70.5 h is -8.14%. On to `CC(C)(C)OC(=O)N1CCC(C(=O)NC2CCS(=O)(=O)C2)CC1` (configuration not stated), for which the cytotoxicity at 70.5 h was -6.28%.

Turning to `CCNc1ccnc(N2Cc3cnc(CC(C)C)nc3C2)n1`, the cytotoxicity at 70.5 h was 18.4%. Consider `CC(=O)NCCC(=O)NCc1cc(Br)ccc1OC(F)F`, for which the cytotoxicity at 70.5 h is -7.14%. As to `Cc1[nH]c2c(C)ccc(C)c2c1CC(=O)NCC(O)c1cccnc1` (configuration not stated), the cytotoxicity at 70.5 h is -10.2%. As to `C1=C(c2c[nH]c3ncccc23)CCN(Cc2nnc(C3CC3)o2)C1`, the cytotoxicity at 70.5 h was found to be 12.3%. Then `Cn1cc(-c2nc(CN3CCOC(Cn4cncn4)C3)cs2)cn1` (configuration not stated), with 1.83%; and `O=C1COc2cc(C(=O)NS(=O)(=O)c3ccc(F)c(F)c3)ccc2N1`, with 10.9%. Then `Cc1ccc(CN2CC[C@H]3[C@H]2CCN3S(=O)(=O)C2CC2)s1`, with -5.12%; and `COCCOC1CCN(C(C(=O)O)c2ccc(OC)c(F)c2)CC1` (configuration not stated), with -6%; and `c1cncc(OCc2nnn3c2CN(Cc2ccsc2)CCC3)c1`, with -11.8%. For the compound `O=c1[nH]c(CCN2CCCC(Cn3cncn3)C2)nc2ccccc12` (configuration not stated), the cytotoxicity at 70.5 h was -0.545%. In the case of `CC(C)N(Cc1ccc(C#N)cc1)C(=O)NCCNc1ncccn1` it was -12.7%; in that of `CCOC(=O)N(C)C1CCN(Cc2csc(C)n2)CC1`, 2.22%. Then `CNC(=O)[C@H]1C[C@H]2OCC[C@H]2N(Cc2cccc3ccccc23)C1`, with -6.96%; and `CCCNC(=O)c1cncc(CC2CCCN(C)C2)c1` (configuration not stated), with -6.34%; and `Cc1nc(C)n(C2CCCN(C(=O)CCCOc3ccccc3)C2)n1` (configuration not stated), with 3.66%. Then `COCC(=O)N1CCN2C(=O)OC[C@H]2C1`, with 3.16%; and `Cc1cccc(C)c1Oc1ncccc1CNC(=O)C1(C)CCCNC1` (configuration not stated), with -7.62%. With `Cc1nc(CN(C)C)cc(N2CCCC(COc3ccc(F)cc3)C2)n1` (configuration not stated), the cytotoxicity at 70.5 h was -5.18%. Then `N#Cc1cccc(C(=O)N2CC(c3nc(-c4cccnc4)no3)C2)c1`, with 10%; and `NC(=O)CCCNC(=O)c1cc(Br)c2c(c1)OCCO2`, with -10.4%.

As for `CCCN(C(=O)c1cccnc1)c1nc2c(s1)CCc1c-2cnn1C`, the cytotoxicity at 70.5 h was 21%. With `Cc1[nH]c2ccccc2c1-c1ccnc(NCCN2CCOCC2)n1`, the cytotoxicity at 70.5 h is 25.2%.

For the compound `COc1cc(C2SCC(=O)Nc3ccsc32)cc(OC)c1OC` (configuration not stated), the cytotoxicity at 70.5 h is -14.5%. Then `CCOC(C)C(=O)NS(=O)(=O)c1cccc2cc(C)cnc12` (configuration not stated), with 1.55%; and `CCS(=O)(=O)N1CCC(OC)c2ccccc2N(CC(=O)NC)C(=O)C1` (configuration not stated), with -1.92%. In the case of `CCOCCNC(=O)c1ccn(S(=O)(=O)c2ccc(C)cc2)c1` it was -2.02%; in that of `Cn1cc(CN2C[C@@H]3COC[C@H](C(=O)Nc4cccnc4)[C@@H]3C2)cn1`, 44.2%. In the case of `Cc1cc(CN(C)CCC(O)c2ccccc2)nn1C` (configuration not stated) it was -2.1%; in that of `CC(=O)N1CCC(n2nccc2-c2cnc(NCCO)nc2)CC1`, -9.44%; in that of `COCCC(=O)N1C[C@@H](c2cccc(OC)c2)[C@@]2(CCCCC(=O)N2)C1`, -14.8%.

As for `CN1CCN(C(=O)C2CCCN2c2ncnc3ccsc23)CC1` (configuration not stated), the cytotoxicity at 70.5 h was -11.8%.

The values above are taken from ChEMBL document CHEMBL3507680, “University of Dundee, Gates Library screen for HepG2 cell viability”.
